Laboratory results: article PMC5569483, “Screening and evolution of a novel protist xylose isomerase from the termite Reticulitermes speratus for efficient xylose fermentation in Saccharomyces cerevisiae” (Biotechnology for Biofuels, 2017)

System: T1, RsXI-C1
T1 construct: full-length ORF, codon-optimized gene, expressed in S. cerevisiae W600W (strain WR311), crude cell extract
Test: coupled sorbitol dehydrogenase assay, NADH oxidation at […] nm, Lineweaver-Burk
Assay type: biochemical, uncultured symbiotic protist of Reticulitermes speratus
Settings: crude cell extract; 100 mM Tris-HCl pH 7.5, 10 mM MgSO4, 0.15 mM NADH, 30 °C, 5–250 mM D-xylose

- Km: 10.5 ± 1.1 mM
Compound: OC1OC[C@@H](O)[C@H](O)[C@H]1O (stereo partly shown) [xylose]
